Results from PMC10302146, “Dual Anta-Inhibitors Targeting Protein Kinase CK1δ and A2A Adenosine Receptor Useful in Neurodegenerative Disorders” (Molecules, 2023).

Experiment: Everted gut sac absorption study (duodenum), HPLC-MS
Type: in vitro ADME, rat
Conditions: for Papp at 60 min: male, Wistar, rat
Experimental: Despite these remarkable assumptions, as many known kinase inhibitors are very often unable to cross lipid bilayer membranes, including the blood–brain barrier, and are, therefore, only suitable for non-central nervous system disorders, the ability of A2A/CK1δ double anta-inhibitors to cross the intestinal barrier was investigated. The experiment was performed using the everted gut sac model. The everted sac model is an efficient tool for studying in vitro drug absorption mechanisms, intestinal metabolism of drugs, the role of transporters in drug absorption, and investigating the role of intestinal enzymes during drug transport through the intestine. Compounds 1 and 2 were measured by liquid chromatography-mass spectrometry (LC-MS) in the mucosal and serosal media to provide a complete picture of the transport.
Compounds 1 and 2 were incubated in the duodenum for 60 min at concentrations of 10^−4, 10^−5, and 10^−6 M to evaluate their absorption.
The concentrations 10^−4, 10^−5, and 10^−6 M correspond to 24.6, 2.46, and 0.246 μg/mL of compound 1 and to 37.6, 3.76, and 0.376 μg/mL of compound 2 due to different molecular weights. Glucose was used to verify the integrity and viability of the gut sacs. Intestine sacs were exposed to the concentrations of compounds under study with respect to glucose-treated tissues. After incubation time, fluids from the mucosal (outside the sacs) and serosal (inside the sacs) sides of the rat gut sacs were collected and detected by HPLC-MS analysis. As expected, the amount of the absorbed analytes was concentration dependent even if compound 1 was much better absorbed with respect to compound 2 (Table 2 and Table 3). […] Data are reported as means ± SE (n = 4–5 experiments). The amount of compounds absorbed compared to the initial concentration is statistically different (p < 0.05).
Adult male Wistar rats (250–300 g; 11–12 weeks) were sacrificed by cervical dislocation, the small intestine was removed, and the duodenum segment was isolated and washed in TC199 medium. The intestine was divided into segments of 2–2.5 cm in length (4 for each animal), and each of them was everted on a glass rod of […] in diameter. All segments were closed at one end with a silk thread, filled with fresh oxygenated TC199 medium, and closed at the other end, creating a shut section (sac). Each sac was placed in a 50 mL beaker containing 9.0 mL of medium aerated with oxygen (O2/CO2, 95%:5%) and thermostated at 37 °C. A total of 1 mL of medium containing one of the samples at a concentration of 1 uM, 10 uM, or 100 uM was added. Each concentration was tested in duplicate in three different animals. In order to mimic the intestine peristalsis, gut sacs were incubated in an oscillating water bath (60 cycles/min). After 1h incubation, sacs were removed, washed in saline solution (0.9% NaCl), and wiped with filter paper. The content of each sac (serosal fluid) was collected into a 1.5 mL Eppendorf tube, and the sac was weighed before and after serosal fluid removal to calculate the exact volume contained inside. Samples were centrifuged for 15 min. at 13,500× g, and the supernatant aqueous solution was filtered through a microporous membrane (0.45 μm) for high-performance liquid chromatography (HPLC). The amount of compound 1 or 2 present inside (serosal fluid) and outside (mucosal fluid) of each sac was calculated by HPLC with diode-array detection (HPLC-DAD) analysis.
The obtained samples from the everted sac model experiment were centrifuged for 20 min at 13,500× g rpm, and the supernatant aqueous solution was filtered through a microporous membrane (0.45 μm pore size) for high-performance liquid chromatography-mass spectrometry analysis. LC-MS analysis was carried out using an HPLC Agilent Technologies 1260 Infinity II and a single quadrupole mass spectrometer. […]

[1] = duodenum, 60 min, initial 10^−4 M (24.6 μg/mL compound 1, 37.6 μg/mL compound 2)
[2] = duodenum, 60 min, initial 10^−5 M (2.46 μg/mL compound 1, 3.76 μg/mL compound 2)
[3] = duodenum, 60 min, initial 10^−6 M (0.246 μg/mL compound 1, 0.376 μg/mL compound 2)

Row | Papp (×10^−6 cm/s) (10^−4 M, 60 min) | Papp (×10^−6 cm/s) (10^−5 M, 60 min) | Compound | Percentage of Drug Absorption (A%) (10^−4 M, 60 min) | Percentage of Drug Retention (Ad%) (10^−4 M, 60 min) | Percentage of Drug Absorption (A%) (10^−5 M, 60 min) | Percentage of Drug Retention (Ad%) (10^−5 M, 60 min) | Percentage of Drug Absorption (A%) (10^−6 M, 60 min) | Percentage of Drug Retention (Ad%) (10^−6 M, 60 min) | Absorbed Concentration [1] | Absorbed Concentration [2] | Absorbed Concentration [3] | Papp at 60 min (10^−4 M) | Papp at 60 min (10^−5 M) | Papp at 60 min (10^−6 M) | metabolic conversion in everted gut sac (HPLC analysis) (duodenum, 60 min)
1 |  |  | CN(C)c1nc(N)c2ncn(C3CCCC3)c2n1 [compound 1, 9-Cyclopentyl-N2,N2-dimethyl-9H-purine-2,6-diamine] | 47% | 2% | 42% | 10% | 24% | 35% | 11.5 µg/mL | 1.03 µg/mL | 0.059 µg/mL | 33 ×10⁻⁶ cm/s | 29.6 ×10⁻⁶ cm/s | 16.9 ×10⁻⁶ cm/s | 
2 | 16.1 ×10^−6 cm/s | 10.8 ×10^−6 cm/s | CN(C)c1nc(NCc2nc3ccccc3[nH]2)c2ncn(C3CCCC3)c2n1 [compound 2, N^6-methyl-(2-benzimidazolyl)-2-dimethyamino-9-cyclopentyladenine] | 23% | 55% | 15% | 66% |  |  | 8.66 µg/mL | 0.576 µg/mL | not detectable |  |  |  | partially converted into its metabolite, compound 1
